Measurements published in patent US20050214738A1, “Conditional allele system” (priority 2003, published 2005).
Several values for one entry are separate records, joined by “and”; a condition that tells them apart may be missing. Equal values may be shown once.

Tests used:
FRB = molecular target: T1, FRB (Homo sapiens, UniProt P42345+P62942); test: SeAP reporter assay, dimerization of FRB-VP16 to FKBP3-GAL4DBD in COS-1 cells; format: cell-based
T1 construct: The minimal FRB domain comprises amino acids 2025-2114 of human mTor; expressed in transfected cells; host or cells: COS-1 cells, electroporated with pBJ5-FRBVP, pBJ5-GF3E and pG5IL2SX
Text: Transcription activation by recruitment of chimeric transcriptional activation and DNA binding domains is described. COS-1 cells were electroporated with […] each of the following expression plasmids (Ho, S. N., Biggar, S. R., Spencer, D. M., Schreiber, S. L., and Crabtree, G. R. “Dimeric ligands define a role for transcriptional activation domains in reinitiation.” (1996) Nature 382, 822-826): pG5IL2SX (drives transcription of bacterial secreted alkaline phosphatase (SeAP) through GAL4 DNA binding […] elements), pBJ5-GF3E (which expresses the GAL4 DNA binding domain fused to three copies of human FKBP12), and pBJ5-FRBVP. (which expresses a FRB fusion with the Herpes Simplex Virus VP16 Activation domain) A FRB*-VP16 fusion protein which consists of modified FRB protein fused to the VP16 activation domain was also used selectively. Transfected cells were distributed equally to 96 well plates and were incubated at 37° C. for 24 to 36 hours before media was supplemented with drug in a dilution curve in which each point is represented in quadruplicate. Cells were incubated at 37° C. for an additional 24 hours followed by a 2-hour treatment at 65° C. to inactivate endogenous phosphatases. Each well was supplemented with 100μL of 1 mM methylumbelliferylphosphate dissolved in 2 M diethanolamine buffered to pH 10.0 with carbonate and incubated at 37° C. for 16 hours. Fluorescence was measured with a Fluoroscan (ICN) plate reader at 355 nm transmission and 455 nm emission using Deltasoft software.
Drug efficacy was determined in a three-plasmid transcriptional switch reporter assay. ˜106 COS1 cells were coelectroporated with 2 μg of the DNA binding construct pBJ5-Gal4-FKBP(3), 2 μg pBJ5-VP16 (or the relevant mutant FRB) and 2 μg of the Gal4-SeAP reporter. Electroporation details are available upon request. […] SeAP activity was measured by fluorescence with a Spectamax M2 fluorometer (Molecular Devices, Sunnyvale, Calif.) with transmission set at 355 nm and emmission set at 460 nm. Data was analysed with Softmax Pro (Molecular Devices), Microsoft Excel and Prism 3 (GraphPad Software).

FRB*Pax6 [1] = molecular target: T2, FRB*Pax6 (UniProt P26883+P42345, K2095P/T2098L/W2101F); test: Stabilization of FRB*Pax6 in cortical neural cultures (Western blot); format: cell-based, mouse
T2 construct: The minimal FRB domain comprises amino acids 2025-2114 of human mTor; from tissue; host or cells: e13.5 cortical neural cultures (A14) and cultured whole embryos (A15) from Pax6^FRB* knock-in mice; fusion expressed from the targeted endogenous locus
Text: e13.5 embryos were harvested from a Pax6^FRB*/+ intercross and cortical hemispheres isolated from individuals identified by eye and craniofacial morphology and later confirmed by genotype specific PCR. Pia were removed and neocortex dissected from […] in Hank's balanced salt solution (HBSS). Tissue was minced roughly and placed in centrifuge tubes containing HBSS+20% foetal calf serum. Tissue pieces were allowed to settle and the media was replaced first with HBSS+serum then HBSS alone. The tissue was incubated with 0.1% trypsin+2 mM EDTA 10 minutes at 37° C. then the reaction stopped with HBSS+serum. Cells were triturated to a suspension and plated on 24 well plates coated with matrigel in DMEM (high glucose) supplemented with FCS (5%), N2 (GIBCO) and antibiotics.
Extracts were prepared in RIPA buffer, protein quantified by Bradford Assay (Biorad) and 10 μg of total protein resolved by SDS-PAGE, transferred to PVDF (Millipore) filters and Pax6 or HSP90 identified with specific antibodies (1:1000, Covance and 1:2500 Transduction Laboratories, respectively) incubated 1 hour in TBS+10% nonfat milk. Secondary conjugated to horse radish peroxidase were purchased from Jackson immunochemicals and blots were developed by chemiluminescence (Amersham).

FRB*Pax6 [2] = molecular target: T2, FRB*Pax6; test: Whole embryo culture, inducible stabilization of FRB*Pax6; set-up: species or system mouse
Description: Uterine horns were removed from sacrificed mothers to a petri dish containing Hank's Balanced Salt Solution (HBSS), fat was removed and the uterus cut up to isolate embryos. Individual deciduum were carefully removed from the uterus by carefully pulling apart the muscular layers in a fresh petri dish containing HBSS (sometimes supplemented with 2 mg/mL glucose) under a dissecting microscope. Embryos were removed by cutting along the lateral axis of the deciduum with fine forceps taking care not to puncture the embryonic membranes and teasing off the decidual layers overlying the embryo. Embryos were then separated from the remaining decidua at the ectoplacental cone or primitive placenta (depending on the age of the embryo).
Reichert's membrane was grasped without the underlying visceral yolk sac, carefully torn away from the embryo and trimmed back to the placenta without ripping the yolk sac. […] The bottle rotated slowly in a roller bottle chamber at 37° C. Drugs were added directly to the culture media at the commencement of the culture.
Embryos were fixed overnight in 4% paraformaldehyde/PBS then dehydrated through a staged ethanol series. Endogenous peroxidases were inactivated with 5% H2O2 for 4 hours in ethanol and the embryos were rehydrated. […] Embryos were washed in block 6 hours with 1 hour changes and incubated overnight at 4° C. with […] anti-mouse secondary. Embryos were washed with PBS+0.1% Triton X-100 4 times for 1 hour and developed with the DAB peroxidase kit from Vector laboratories.
Embryos were protected with a staged series to 30% sucrose in PBS after fixation in 4% PFA (60 minutes to overnight at 4° C.). Protected embryos were embedded in OCT (VWR) frozen and sectioned on a Leica cryostat to 10 μm. Thin sections were stained according to standard protocols (obtained upon request). Secondary antibodies were purchased from Molecular Probes (Eugene, Oreg.) and primary antibodies to neurofilament, Lim3, Nkx2.2, Pax6, En1, Isl1 were obtained from Dev. Studies. Additional antibodies were from Covance, Zymed or a generous gift of Tadashi Nomura and Noriko Osumi (Sendai, Japan). Immunofluorescence was visualized by confocal microscopy.

T2 sequence (P42345 2025-2114 K2095P/T2098L/W2101F): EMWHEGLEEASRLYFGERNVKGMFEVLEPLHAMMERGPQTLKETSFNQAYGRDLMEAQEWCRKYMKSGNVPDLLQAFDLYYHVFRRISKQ
T2 sequence (P26883 2-108): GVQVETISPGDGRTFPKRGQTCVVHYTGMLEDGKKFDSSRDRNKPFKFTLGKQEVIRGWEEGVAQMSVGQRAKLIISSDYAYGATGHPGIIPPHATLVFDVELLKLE
T1 sequence (P42345 2025-2114): as the sequence (P42345 2025-2114 K2095P/T2098L/W2101F) above, with P71K, L74T, F77W counted along it
T1 sequence (P62942 whole entry, the tested form may be a part): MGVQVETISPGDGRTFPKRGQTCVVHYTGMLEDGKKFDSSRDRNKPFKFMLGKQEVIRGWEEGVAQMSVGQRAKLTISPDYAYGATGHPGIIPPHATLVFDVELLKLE

C20-(R or S)-methallylrapamycin [C20-MaRap]
Kd (FRB; wild-type FRB): > 200 nM | EC50 (FRB; wild-type FRB(KTW)-VP16, ±95% confidence intervals): 226 nM and > 200 nM | FRB*Pax6 protein level (FRB*Pax6 [1]; Pax6FRB*/FRB* cortical neural cultures, increasing quantities, 36 hours): dose-dependent increase in FRB*Pax6 protein | effect on wild-type Pax6 expression (FRB*Pax6 [1]; cortical neural cultures): no effect | kinetics of FRB*Pax6 turnover (FRB*Pax6 [1]; data not shown): markedly slowed | Lim3 phenotype of caudal hindbrain (FRB*Pax6 [2]; 48 hours from e9.5 to e11.5): could be rescued | hypoglossal nerve, whole mount neurofilament staining (FRB*Pax6 [2]; 48 hours from e9.5 to e11.5): fasciculated hypoglossal nerve erupts | expression of FRB*Pax6 protein in the spinal cord (FRB*Pax6 [2]; Pax6FRB*/FRB* embryos, data not shown): rescued | En1 expressing cells in the V1 domain of spinal cord (FRB*Pax6 [2]; e8.5 embryos cultured 48 hours, 2 μM): rescued the development of En1 expressing cells | cells expressing Lim3 in spinal cord (FRB*Pax6 [2]; e9.5 to e11.5, 2 μM): expansion of cells expressing Lim3 | effect on wild-type embryos (FRB*Pax6 [2]; embryo cultures): no obvious effect
